Assay results published in PMC4302056 (Bioorganic & medicinal chemistry, 2014).
Converted amounts (≈) assume the structure as drawn. “Also recorded” adds a separate entry of the source.

Assays:
Histoplasma capsulatum = assay: microbe, parasite or virus in culture; format: cell-based; conditions: for anti-Histoplasma activity (in words): qualitative statement; for MIC50: Histoplasma capsulatum, 96 h, read-out: Histoplasma capsulatum MIC50
Cryptococcus neoformans = format: cell-based
[1] = system: DU-145 human prostate cancer cells; conditions: read-out: IC50 of in vitro proliferation inhibition; cited from earlier work
Histoplasma yeast = conditions: inhibitory vs microbicidal; cited from earlier work
Aspergillus fumigatus = conditions: cited from earlier work
Candida albicans = conditions: cited from earlier work
Blastomyces dermatitidis = conditions: cited from earlier work

| SMILES | anti-Histoplasma activity (in words) (Histoplasma capsulatum) | MIC50 (Histoplasma capsulatum) [µM] | further results |
| --- | --- | --- | --- |
| NC(=O)c1cc(-c2ccccc2)sc1NC(=O)c1ccc2c(c1)OCCO2 [4H2, reference compound] | abolished or reduced activity | – | – |
| CC(C)(C)OC(=O)Nc1ncc(C(O)c2ccccc2)s1 (stereo not shown) [Compound 2a, tert-Butyl{5-[hydroxy(phenyl)methyl]thiazol-2-yl}carbamate] | lack of activity | > 10 | – |
| Nc1ncc(Cc2ccccc2)s1 [Compound 3a, 5-Benzyl-2-thiazolamine] | – | > 10 | – |
| O=C(Nc1ncc(Cc2ccccc2)s1)C(F)(F)F [Compound 4a, N-(5-Benzylthiazol-2-yl)trifluoroacetamide] | – | > 10 | – |
| CC(C)C(=O)Nc1ncc(Cc2ccccc2)s1 [Compound 4b, N-(5-Benzylthiazol-2-yl)isobutyramide] | – | 6.7 (≈ 1.74 µg/mL) | – |
| O=C(Nc1ncc(Cc2ccccc2)s1)C1CCCC1 [Compound 4c, N-(5-Benzylthiazol-2-yl)cyclopentanecarboxamide] | – | 1.6 ± 0.1 (≈ 0.458 µg/mL) | anti-Cryptococcus activity (in words) (Cryptococcus neoformans): anti-Cryptococcus activity |
| O=C(Nc1ncc(Cc2ccccc2)s1)C1CCCCC1 [Compound 4d, N-(5-Benzylthiazol-2-yl)cyclohexanecarboxamide] | – | 1.6 ± 0.1 (≈ 0.481 µg/mL) | anti-Cryptococcus activity (in words) (Cryptococcus neoformans): anti-Cryptococcus activity |
| O=C(CC1CCCCC1)Nc1ncc(Cc2ccccc2)s1 [Compound 4e, N-(5-Benzylthiazol-2-yl)-2-cyclohexylacetamide] | – | – | anti-Cryptococcus activity (in words) (Cryptococcus neoformans): lost activity |
| O=C(CCC1CCCCC1)Nc1ncc(Cc2ccccc2)s1 [Compound 4f, N-(5-Benzylthiazol-2-yl)-3-cyclohexylpropanamide] | – | – | anti-Cryptococcus activity (in words) (Cryptococcus neoformans): lost activity |
| O=C(/C=C/C1CCCCC1)Nc1ncc(Cc2ccccc2)s1 [Compound 4g, (E)-N-(5-Benzylthiazol-2-yl)-3-cyclohexylacrylamide] | – | > 10 | – |
| O=C(Nc1ncc(Cc2ccccc2)s1)c1ccccc1 [Compound 4h, N-(5-Benzylthiazol-2-yl)benzamide] | – | > 10 | – |
| O=C(Nc1ncc(Cc2ccccc2)s1)C1CCSCC1 [Compound 5a, N-(5-Benzylthiazol-2-yl)tetrahydro-2H-thiopyran-4-carboxamide] | – | 4.8 (≈ 1.53 µg/mL) | – |
| O=C(Nc1ncc(Cc2ccccc2)s1)C1CCOCC1 [Compound 5b, N-(5-Benzylthiazol-2-yl)tetrahydro-2H-pyran-4-carboxamide] | – | > 10 | – |
| O=C(Nc1ncc(Cc2ccccc2)s1)N1CCOCC1 [Compound 5f, N-(5-Benzylthiazol-2-yl)morpholine-4-carboxamide] | – | > 10 | – |
| O=C(Nc1ncc(Cc2ccccc2)s1)c1cnc(-c2cccs2)s1 [Compound 5h, N-(5-Benzylthiazol-2-yl)-2-(thiophen-2-yl)thiazole-5-carboxamide] | – | > 10 | – |
| COc1ccc(Cc2cnc(NC(=O)/C=C/c3ccco3)s2)cc1 [Compound 6d, 3-(2-Furyl)-N-[5-(4-methoxybenzyl)-1,3-thiazol-2-yl]acrylamide] | did not have any antifungal activity | – | IC50 [1]: 15 nM |
| O=C(CCC1CCCCC1)Nc1ncc(Cc2cccc(C(F)(F)F)c2)s1 [Compound 7a, N-{5-[3-(Trifluoromethyl)benzyl]thiazol-2-yl}-3-cyclohexanepropanamide] | lack of activity | – | – |
| CC(C)C(=O)Nc1ncc(Cc2cccc3ccccc23)s1 [Compound 9b, N-[5-(1-Naphthalenylmethyl)thiazol-2-yl]isobutyramide] | – | – | anti-Cryptococcus activity (in words) (Cryptococcus neoformans): lost activity |
| O=C(Nc1ncc(Cc2cccc3ccccc23)s1)C1CCCC1 [Compound 9c, N-[5-(1-Naphthalenylmethyl)thiazol-2-yl]cyclopentanecarboxamide] | – | – | anti-Cryptococcus activity (in words) (Cryptococcus neoformans): anti-Cryptococcus activity |

| SMILES | anti-Histoplasma activity (in words) (Histoplasma capsulatum) | MIC50 (Histoplasma capsulatum) [µM] | further results |
| --- | --- | --- | --- |
| O=C(Nc1ncc(Cc2cccc3ccccc23)s1)C1CCCCC1 [Compound 9d, N-[5-(1-Naphthalenylmethyl)thiazol-2-yl]cyclohexanecarboxamide] | – | – | type of antifungal action (Histoplasma yeast): inhibitory rather than microbicidal action; inhibition of in vitro growth (Aspergillus fumigatus): does not inhibit; anti-Cryptococcus activity (in words) (Cryptococcus neoformans): anti-Cryptococcus activity; inhibition of in vitro growth (Candida albicans): does not inhibit; inhibition of in vitro growth (Blastomyces dermatitidis): does not inhibit |
| O=C(CC1CCCCC1)Nc1ncc(Cc2cccc3ccccc23)s1 [Compound 9e, N-[5-(1-Naphthalenylmethyl)thiazol-2-yl]-2-cyclohexaneacetamide] | – | – | anti-Cryptococcus activity (in words) (Cryptococcus neoformans): lost activity |
| O=C(CCC1CCCCC1)Nc1ncc(Cc2cccc3ccccc23)s1 [Compound 9f, N-[5-(1-Naphthalenylmethyl)thiazol-2-yl]-3-cyclohexanepropanamide] | – | – | anti-Cryptococcus activity (in words) (Cryptococcus neoformans): lost activity |
| O=C(Nc1ncc(CCc2ccccc2)s1)C1CCCC1 [Compound 11a, N-(5-Phenethylthiazol-2-yl)cyclopentanecarboxamide] | – | 0.9 ± 0.1 (≈ 0.27 µg/mL) | – |
| O=C(CCC1CCCCC1)Nc1ncc(CCc2ccccc2)s1 [Compound 11b, N-(5-Phenethylthiazol-2-yl)-3-cyclohexanepropanamide] | – | 0.7 ± 0.1 (≈ 0.24 µg/mL) | – |
| O=C(Nc1ncc(-c2ccccc2)s1)C1CCCC1 [Compound 12a, N-(5-Phenylthiazol-2-yl)cyclopentanecarboxamide] | – | > 10 | – |
| O=C(Nc1ncc(-c2ccccc2)s1)C1CCCCC1 [Compound 12b, N-(5-Phenylthiazol-2-yl)cyclohexanecarboxamide] | – | > 10 | – |
| CC(C)C(=O)Nc1ncc(CC2CCCCC2)s1 [Compound 13a, N-[5-(Cyclohexylmethyl)thiazol-2-yl]isobutyramide] | no activity | > 10 | – |
| O=C(CC1CCCCC1)Nc1ncc(CC2CCCCC2)s1 [Compound 13c, N-[5-(Cyclohexylmethyl)thiazol-2-yl]-2-cyclohexaneacetamide] | no activity; also recorded: abolished activity | > 10 | – |
| O=C(Nc1ncc(CC2CCCCC2)s1)c1ccccc1 [Compound 13e, N-[5-(Cyclohexylmethyl)thiazol-2-yl]benzamide] | – | 4.6 (≈ 1.38 µg/mL) | – |
| O=C(Nc1ncc(CC2CCCCC2)s1)C12CC3CC(CC(C3)C1)C2 [Compound 13f, N-[5-(Cyclohexylmethyl)thiazol-2-yl]adamantane-1-carboxamide] | no activity | > 10 | – |
| O=C(CCC1CCCCC1)Nc1nnc(Cc2ccccc2)s1 [Compound 14a, N-(5-Benzyl-1,3,4-thiadiazol-2-yl)-3-cyclohexylpropanamide] | abolished or reduced activity | > 10 | – |
| CN(C(=O)CCC1CCCCC1)c1ncc(Cc2ccccc2)s1 [Compound 14b, N-(5-Benzylthiazol-2-yl)-3-cyclohexyl-N-methylpropanamide] | abolished or reduced activity | > 10 | – |
| Cc1nc(NC(=O)CCC2CCCCC2)sc1Cc1ccccc1 [Compound 14c, N-(5-Benzyl-4-methylthiazol-2-yl)-3-cyclohexylpropanamide] | reduced anti-Histoplasma activity or were inactive | > 10 | – |
| O=C(Nc1nc(-c2ccccc2)cs1)C1CCCC1 [Compound 15a, N-(4-Phenylthiazol-2-yl)cyclopentanecarboxamide] | no activity | – | – |
| O=C(CCC1CCCCC1)Nc1nc(-c2ccccc2)cs1 [Compound 15b, N-(4-Phenylthiazol-2-yl)-3-cyclohexanepropanamide] | no activity | – | – |
| O=C(Nc1nc(C23CC4CC(CC(C4)C2)C3)cs1)C1CCCC1 [Compound 15d, N-[4-(Adamantan-1-yl)thiazol-2-yl]cyclopentanecarboxamide] | – | 7.4 (≈ 2.45 µg/mL) | – |
| O=C(Nc1nc(C23CC4CC(CC(C4)C2)C3)cs1)C1CCCCC1 [Compound 15e, N-[4-(Adamantan-1-yl)thiazol-2-yl]cyclohexanecarboxamide] | – | 2.5 ± 0.1 (≈ 0.861 µg/mL) | – |
| O=C(CC1CCCCC1)Nc1nc(C23CC4CC(CC(C4)C2)C3)cs1 [Compound 15f, N-[4-(Adamantan-1-yl)thiazol-2-yl]-2-cyclohexylacetamide] | abolished activity | – | – |
